From patent US20080026943A1, “Phenyl-Substituted [1,2]-Oxazine-3,5-Dione and Dihydropyrone Derivatives” (priority 2004, published 2008)
Marks after values point to notes of the source that are not given here.

Columns and labels:
Pyricularia oryzae = assay type: cell-based; conditions: tested at 0.1, 1, 10 and 100 ppm, 20° C., 3 to 5 days, photometric at 620 nm
Setaria [1] = assay: Pre-emergence herbicidal effect, greenhouse; assay type: in vivo; conditions: scored after 3 weeks
From the text: (§1) Seeds of mono- and dicotyledonous weed and crop plants are placed in sandy loam soil in wood fibre pots and covered with soil. The test compounds, formulated as wettable powders (WP), are then applied as an aqueous suspension with a water application rate of 600 l/ha (converted) and with addition of 0.2% wetting agent, in different dosages to the surface of the covering soil. After the treatment, the pots are placed in a greenhouse and maintained under optimum growth conditions for the test plants. The visual scoring of the emergence damage on the trial plants is carried out after a trial time of 3 weeks in comparison to untreated controls (herbicidal effect in percent (%): 100% effect=plants have died, 0% effect=like control plants).

Lolium [2] = assay: Pre-emergence herbicidal effect, greenhouse; assay type: in vivo; conditions: scored after 3 weeks
From the text: as §1

Echinochloa [3] = assay: Post-emergence herbicidal effect, greenhouse; assay type: in vivo; conditions: 320 g a.i./ha, scored after about 3 weeks
Experimental: (§2) Seeds of mono- and dicotyledonous weed and crop plants are placed in sandy loam soil in wood fibre pots, covered with soil and cultivated in a greenhouse under good growth conditions. 2-3 weeks after sowing, the trial plants are treated at the one-leaf stage. The test compounds, formulated as wettable powders (WP), are sprayed at various dosages with a water application rate of 600 l/ha (converted) and with addition of 0.2% wetting agent to the green parts of the plants. After the trial plants have stood in the greenhouse for about 3 weeks under optimum growth conditions, the effect of the products is scored visually in comparison to untreated controls (herbicidal effect in percent (%): 100% effect=plants have died, 0% effect=like control plants).

Setaria [4] = assay: Post-emergence herbicidal effect, greenhouse; assay type: in vivo; conditions: 320 g a.i./ha, scored after about 3 weeks
Experimental: as §2

Lolium [5] = assay: Post-emergence herbicidal effect, greenhouse; assay type: in vivo; conditions: 320 g a.i./ha, scored after about 3 weeks
Experimental: as §2

[6] = logP by HPLC on a reversed-phase column (C18), EEC Directive 79/831 Annex V.A8; assay type: physicochemical; conditions: reversed-phase C18, 43° C., pH variant not stated for these values
From the text: [table] The determination is made in the acidic range at a pH of 2.3 using 0.1% aqueous phosphoric acid and acetonitrile as eluents; linear gradient from 10% acetonitrile to 95% acetonitrile. The determination with LC-MS in the acidic range is made at a pH of 2.7 with 0.1% aqueous formic acid and acetonitrile (containing 0.1% formic acid) as eluents; linear gradient from 10% acetonitrile to 95% acetonitrile. The determination with LC-MS in the neutral range is made at a pH of 7.8 with 0.001 molar aqueous ammonium hydrogen carbonate solution and acetonitrile as eluents; linear gradient from 10% acetonitrile to 95% acetonitrile. Calibration is carried out with unbranched alkan-2-ones (having 3 to 16 carbon atoms), for which the logP values are known (logP values determined on the basis of the retention times by means of linear interpolation between two successive alkanones).

[7] = system: green peach aphid (Myzus persicae); assay: Myzus persicae test (MYZUPE), leaf immersion; assay type: in vivo; conditions: 500 ppm; cabbage leaves immersed
Experimental: [table] A suitable preparation of active compound is prepared by mixing 1 part by weight of active compound with the stated amounts of solvent and emulsifier and diluting the concentrate with emulsifier-containing water to the desired concentration. Leaves of cabbage (Brassica oleracea) heavily infested by the green peach aphid (Myzus persicae) are treated by being immersed in the preparation of active compound at the desired concentration. After the desired time, the kill rate in % is determined. 100% means that all of the aphids have been killed; 0% means that no aphids have been killed.

Botrytis cinerea = assay: Botrytis test (bean)/protective; assay type: in vivo; conditions: protective, 500 g/ha, two days after inoculation
Experimental: A suitable preparation of active compound is prepared by mixing 1 part by weight of active compound with the stated amounts of solvent and emulsifier and diluting the concentrate with water to the desired concentration.
To test for protective activity, young plants are sprayed with the preparation of active compound at the stated application rate. After the spray coating has dried on, two small pieces of agar colonized by Botrytis cinerea are placed on each leaf. The inoculated plants are placed in a darkened chamber at about 20° C. and 100% humidity.
Two days after inoculation, the size of the infestation spots on the leaves is evaluated. 0% denotes an efficacy corresponding to that of the control, while an efficacy of 100% denotes a total absence of observed infestation.

Venturia inaequalis = assay: Venturia test (apple)/protective; assay type: in vivo; conditions: protective, 100 g/ha, 10 days after inoculation
Experimental: [table] A suitable preparation of active compound is prepared by mixing 1 part by weight of active compound with the stated amounts of solvent and emulsifier and diluting the concentrate with water to the desired concentration. To test for protective activity, young plants are sprayed with the preparation of active compound at the stated application rate. After the spray coating has dried on, the plants are inoculated with an aqueous conidia suspension of the causative organism of apple scab, Venturia inaequalis, and then spend 1 day in an incubation cabin at about 20° C. and 100% relative humidity. Thereafter the plants are placed in a greenhouse at about 21° C. and about 90% relative humidity.

Echinochloa [8] = assay: Pre-emergence herbicidal effect, greenhouse; assay type: in vivo; conditions: 1000 g a.i./ha, scored after 3 weeks
From the text: as §1

Plasmopara viticola = assay: Plasmopara test (grapevine)/protective; assay type: in vivo; conditions: protective, 100 g/ha, 6 days after inoculation
Experimental: [table] A suitable preparation of active compound is prepared by mixing 1 part by weight of active compound with the stated amounts of solvent and emulsifier and diluting the concentrate with water to the desired concentration. To test for protective activity, young plants are sprayed with the preparation of active compound at the stated application rate. After the spray coating has dried on, the plants are inoculated with an aqueous spore suspension of Plasmopara viticola and then spend 1 day in an incubation cabin at about 20° C. and 100% relative humidity. Thereafter the plants are placed in a greenhouse for 4 days at about 21° C. and about 90% humidity. The plants are then moistened and placed in an incubation cabin for 1 day.

Sorghum = assay: Post-emergence herbicidal effect, greenhouse; assay type: in vivo; conditions: 320 g a.i./ha, scored after about 3 weeks
Experimental: as §2

Digitaria = assay: Post-emergence herbicidal effect, greenhouse; assay type: in vivo; conditions: 320 g a.i./ha, scored after about 3 weeks
Experimental: as §2

Sugarbeets = assay: Post-emergence herbicidal effect, greenhouse; assay type: in vivo; conditions: 320 g a.i./ha, scored after about 3 weeks
Experimental: as §2

Sinapis = assay: Post-emergence herbicidal effect, greenhouse; assay type: in vivo; conditions: 320 g a.i./ha, scored after about 3 weeks
Experimental: as §2

Cc1ccc(C2(Cl)C(=O)N(C)OC(C)(C)C2=O)c(Cl)c1 (stereo not shown) [Example I-1-1]
ED50 (dose leading to 50% inhibition of fungal growth) (Pyricularia oryzae): <0.1 ppm

CCc1cc(Cl)cc(Cl)c1C1(Cl)C(=O)N(C)OC(C)(C)C1=O (stereo not shown) [Example I-1-7]
herbicidal effect in percent, Setaria (Setaria [1]; 320 g a.i./ha): 100%
herbicidal effect in percent, Lolium (Lolium [2]; 320 g a.i./ha): 100%
herbicidal effect in percent, Echinochloa (Echinochloa [3]): 90%
herbicidal effect in percent, Setaria (Setaria [4]): 90%
herbicidal effect in percent, Lolium (Lolium [5]): 90%

CCc1cc(Br)ccc1C1(Cl)C(=O)N(C)OC(C)(C)C1=O (stereo not shown) [Example I-1-10]
herbicidal effect in percent, Echinochloa (Echinochloa [3]): 90%
herbicidal effect in percent, Setaria (Setaria [4]): 80%
herbicidal effect in percent, Lolium (Lolium [5]): 90%

CN1OC(C)(C)C(=O)C(Cl)(c2cc(-c3ccc(Cl)cc3)ccc2Cl)C1=O (stereo not shown) [Example I-1-11]
log P [6]: log P 4.58*

Cc1ccc(-c2ccc(C(F)(F)F)cc2)cc1C1(Cl)C(=O)N(C)OC(C)(C)C1=O (stereo not shown) [Example I-1-12]
log P [6]: log P 4.56*

CC1(C)OC(=O)C(Cl)(c2cc(-c3ccc(Cl)cc3)ccc2Cl)C(=O)C1(C)C (stereo not shown) [Example I-2-1]
ED50 (dose leading to 50% inhibition of fungal growth) (Pyricularia oryzae): 0.48 ppm
activity (kill rate in %) [7]: ≥ 80%

Cc1ccc(-c2ccc(Cl)cc2)cc1C1(Cl)C(=O)OC2CCCCC2(C)C1=O (stereo not shown) [Example I-2-2]
Efficacy in % (Botrytis cinerea): 93%
Efficacy in % (Venturia inaequalis): 99%
ED50 (dose leading to 50% inhibition of fungal growth) (Pyricularia oryzae): 0.12 ppm
herbicidal effect in percent, Echinochloa (Echinochloa [8]): 100%
herbicidal effect in percent, Setaria (Setaria [1]; 1000 g a.i./ha): 100%
herbicidal effect in percent, Lolium (Lolium [2]; 1000 g a.i./ha): 80%
Efficacy in % (Plasmopara viticola): 100%
herbicidal effect in percent, Sorghum (Sorghum): 80%
herbicidal effect in percent, Echinochloa (Echinochloa [3]): 100%
herbicidal effect in percent, Setaria (Setaria [4]): 100%
herbicidal effect in percent, Digitaria (Digitaria): 100%
herbicidal effect in percent, Sugarbeets (Sugarbeets): 0%
herbicidal effect in percent, Lolium (Lolium [5]): 80%

CC1(C)OC(=O)C(Cl)(c2cc(-c3ccc(Cl)cc3Cl)ccc2Cl)C(=O)C1(C)C (stereo not shown) [Example I-2-6]
herbicidal effect in percent, Echinochloa (Echinochloa [3]): 90%
herbicidal effect in percent, Sinapis (Sinapis): 40%
herbicidal effect in percent, Setaria (Setaria [4]): 90%
herbicidal effect in percent, Lolium (Lolium [5]): 70%

Cc1ccc(-c2ccc(Cl)cc2)cc1C1(Cl)C(=O)OC(C)(C)C(C)(C)C1=O (stereo not shown) [Example I-2-10]
herbicidal effect in percent, Echinochloa (Echinochloa [3]): 70%
herbicidal effect in percent, Sinapis (Sinapis): 80%
herbicidal effect in percent, Setaria (Setaria [4]): 90%
herbicidal effect in percent, Lolium (Lolium [5]): 70%
